The results in this text go back to ChEMBL document CHEMBL1156366, “Sequoiatones C-f, constituents of the redwood endophyte Aspergillus parasiticus” (J Nat Prod, 2001).

A short description of this series: Toxicity against brine shrimp. Format: organism-based. Conditions: artemia, in vivo; read-out: LD50 (the source's name).

On to `COC(=O)C1=C2C=C(C)OC=C2[C@](C)(O)/C1=C/C(=O)[C@@H](C)CCCCCCO` [SEQUOIATONE D], for which the LC50 was found to be 1300 µM.

Take `CCCCCC[C@H](C)C(=O)/C=C1\C(C(=O)OC)=C2C=COC(C)=C2[C@]1(C)O` [SEQUOIATONE C]: the LC50 is 260 µM.

For `CCCCCC[C@H](C)C(=O)/C=C1\C(C(=O)OC)=C2C=C(C)OC=C2[C@]1(C)O` [SEQUOIATONE F], the LC50 is 260 µM.

Regarding `COC(=O)C1=C2C=COC(C)=C2[C@](C)(O)/C1=C/C(=O)[C@@H](C)CCCCCCO` [SEQUOIATONE E], the LC50 was determined as 640 µM.
